Laboratory results: PMC8716824, “Design, Synthesis and Anti-Lung Cancer Evaluation of 1, 2, 3-Triazole Tethered Dihydroartemisinin-Isatin Hybrids” (Frontiers in Pharmacology, 2021)
Like-named read-outs stand apart in the source and are kept apart here.

How the values were obtained:
A549 lung cancer cells = assay: MTT antiproliferative assay, A549; format: cell-based; settings: Homo sapiens
Procedure: (§1) The antiproliferative activity of 1,2,3-triazole tethered dihydroartemisinin-isatin hybrids 8a-c and 9a-k against A549, multidrug-resistant A549/DOX and A549/DDP lung cancer cell lines as well as cytotoxicity towards mouse embryonic fibroblast cells NIH/3T3 were assessed by 3-(4,5-dimethylthiazol-2-yl)-2,5-diphenyltetrazolium bromide (MTT) assay, and half maximal inhibitory concentration (IC50) values were listed in Table 2. A549, A549/DOX, and A549/DDP lung cancer cells (2 × 10^3) were plated in each well of a 96-well plate and were allowed to adhere and spread for 24 h. The 1,2,3-triazole tethered dihydroartemisinin-isatin hybrids 8a-c and 9a-k were added to a final concentration of 100 μM, and the cells were cultured for 24 h at 37°C. 3-(4,5-dimethyl-2-thiazolyl)-2,5-diphenyltetrazolium bromide (MTT) solution (10 µL) was added to each well, and the cultures were incubated for an additional 4 h. A further 100 µL of […] was added and incubation continued overnight. The absorbance at 540 nm was determined in each well with a 96-well plate reader. The growth of the treated cells was compared with that of untreated cells.

[1] = Stability in mouse/human microsomes, pooled range; format: in vitro ADME
Procedure: (§2) The metabolic stability of selected hybrids 8a,c and 9i was assessed in mouse and human microsomes, and the results were listed in Table 3.

[2] = tested on: mouse embryonic fibroblast cells NIH/3T3; assay: MTT cytotoxicity assay, NIH/3T3; format: cell-based; settings: for SI (selectivity index): IC50(NIH/3T3)/IC50(A549); for IC50: Mus musculus, NIH3T3, cytotoxicity, NIH/3T3 cells, MTT (called CC50 in method)
Procedure: The antiproliferative activity of 1,2,3-triazole tethered dihydroartemisinin-isatin hybrids 8a-c and 9a-k against A549, multidrug-resistant A549/DOX and A549/DDP lung cancer cell lines as well as cytotoxicity towards mouse embryonic fibroblast cells NIH/3T3 were assessed by 3-(4,5-dimethylthiazol-2-yl)-2,5-diphenyltetrazolium bromide (MTT) assay, and half maximal inhibitory concentration (IC50) values were listed in Table 2.
The cytotoxicity (CC50) of the synthesized 1,2,3-triazole tethered dihydroartemisinin-isatin hybrids 8a-c and 9a-k were examined by the MTT assay in mouse embryonic fibroblast cells NIH/3T3. The compounds were dissolved in DMSO with concentrations from 1,024 to 1 μg/ml. The NIH/3T3 cells were maintained in culture medium at 37°C under 5% CO2 atmosphere. Cells were seeded in 96-well plates (1 × 10^4 cell per well) and allowed to recover for 24 h. After 72 h of exposure, cells were harvested and cell viability was assessed by MTT assay. The CC50 values were calculated by Bliss analy.

[3] = tested on: A549, A549/DOX and A549/DDP lung cancer cell lines; assay: MTT antiproliferative assay, ranges pooled over lung cancer cell lines; format: cell-based
Procedure: as §1

[4] = Stability in human liver microsomes; format: in vitro ADME
Procedure: as §2

[5] = Pharmacokinetics in CD-1 mice; format: in vivo; settings: mouse, plasma, 30 mg/kg, single intravenous administration; for clearance: read-out: Cl (clearance rate) (converted); for bioavailability: read-out: F (bioavailability); for Tmax: read-out: tmax (peak time) (converted)
Procedure: The pharmacokinetic behavior of hybrids 8a,c was determined in CD-1 mice model by single intravenous administration with dose of 30 mg/kg.
CD-1 mice (20–25 g) were used in the pharmacokinetic study, and each treatment group had 3 mice which were dosed with hybrids 8a,c suspension at 30 mg/kg by single intravenous administration. Compounds were suspended in 0.5% CMC for iv, and blood was collected from the jugular vein of each mouse at the following time points: 0.25, 0.5, 1, 2, 4, 6, 8 and 24 h after intravenous administration. Total area under the concentration time curve (AUC), the elimination half-time (t1/2), the peak concentration (Cmax) and the time to reach peak concentration (Tmax) of samples were determined directly from the experimental data using WinNonlin V6.2.1.

[6] = Stability in mouse liver microsomes; format: in vitro ADME
Procedure: as §2

[7] = tested on: cisplatin-resistant A549 (A549/DDP) lung cancer cells; assay: MTT antiproliferative assay, A549/DDP; format: cell-based; settings: A549/DDP
Procedure: as §1

[8] = tested on: doxorubicin-resistant A549 (A549/DOX) lung cancer cells; assay: MTT antiproliferative assay, A549/DOX; format: cell-based; settings: Homo sapiens
Procedure: as §1

[9] = Homo sapiens, range over A549 and A549/DOX, read-out: IC50, range over A549 and A549/DOX
[10] = range over the three lung cancer cell lines, read-out: IC50, range over A549, A549/DOX and A549/DDP

C[C@@H]1CC[C@H]2[C@@H](C)C(OCc3cn(CCN4C(=O)C(=O)c5cc(F)ccc54)nn3)O[C@@H]3O[C@@]4(C)CC[C@@H]1[C@]32OO4 (stereo partly drawn) [8c, 5-fluoro-1-(2-(4-((((3R,5aS,6R,8aS,9R,12R,12aR)-3,6,9-trimethyldecahydro-12H-3,12-epoxy[1,2]dioxepino[4,3-i]isochromen-10-yl)oxy)methyl)-1H-1,2,3-triazol-1-yl)ethyl)indoline-2,3-dione]
IC50 (A549 lung cancer cells): 7.54 µM | Liver microsomes, range over mouse and human [1]: 68–83% | SI (selectivity index) [2]: >13.2 | IC50 [2]: > 100 µM | IC50 [3, 9]: 7.54 to 15.9 µM | IC50 [3, 10]: 7.54 to 12.1 µM | Liver microsomes, Human [4]: 83% | AUC [5]: 654 ng·h/mL | Cmax [5]: 12.5 µM | half-life [5]: 4.2 h | clearance [5]: 52.7 mL/min/kg | bioavailability [5]: 27.5% | Tmax [5]: 0.2 h | Liver microsomes, Mouse [6]: 71% | IC50 [7]: 8.77 µM | IC50 [8]: 9.89 µM

C[C@@H]1CC[C@H]2[C@@H](C)C(OCc3cn(CCN4C(=O)C(=O)c5ccccc54)nn3)O[C@@H]3O[C@@]4(C)CC[C@@H]1[C@]32OO4 (stereo partly drawn) [8a, 1-(2-(4-((((3R,5aS,6R,8aS,9R,12R,12aR)-3,6,9-trimethyldecahydro-12H-3,12-epoxy[1,2]dioxepino[4,3-i]isochromen-10-yl)oxy)methyl)-1H-1,2,3-triazol-1-yl)ethyl)indoline-2,3-dione]
IC50 (A549 lung cancer cells): 8.32 µM | Liver microsomes, range over mouse and human [1]: 68–83% | SI (selectivity index) [2]: >12.0 | IC50 [2]: > 100 µM | IC50 [3, 9]: 7.54 to 15.9 µM | IC50 [3, 10]: 7.54 to 12.1 µM | Liver microsomes, Human [4]: 68% | AUC [5]: 883 ng·h/mL | Cmax [5]: 6.4 µM | half-life [5]: 3.7 h | clearance [5]: 38.5 mL/min/kg | bioavailability [5]: 35.6% | Tmax [5]: 0.2 h | Liver microsomes, Mouse [6]: 77% | IC50 [7]: 10.7 µM | IC50 [8]: 12.1 µM
